Source: patent US20250215030A1, “STAT MODULATORS AND USES THEREOF” (Recludix Pharma, Inc., priority 2022, published 2025)
Read-outs that look alike come from different tables or passages of the source.

Key:
[1] = target: T1, pSTAT3 (pY705-STAT3) (Homo sapiens, UniProt P40763); experiment: MSD-pSTAT-PBMC Assay (pSTAT3, IL-6 stimulated); format: cell-based
T1 construct: host or cells: cryopreserved PBMC
From the text: Cryopreserved Peripheral Blood Mononuclear Cells (PBMC) are from AllCells. Recombinant Human IL-4 and IL-6 are from Peprotech. Mouse monoclonal anti-STAT3 antibody, rabbit monoclonal anti-pY705-STAT3 antibody, rabbit monoclonal Anti-pY641-STAT6 antibody, and lysis buffer are from Cell Signaling Technology (CST). Mouse monoclonal anti-STAT6 antibody is from BioLegend. Assay plates, blocker, and anti-rabbit secondary antibody are from Meso Scale Discovery (MSD).
Cryopreserved PBMCs were thawed out and allowed to recover overnight in IMDM+10% heat-inactivated FBS prior to plating 50,000 (STAT3) or 25,000 (STAT6) cells per well in 96-well U-bottom tissue culture plates. Cells were treated with compound for 3 hrs, then stimulated with 10 ng/mL IL-6 (STAT3) or 1 ng/mL IL-4 (STAT6) for 10 min. Cells were then spun down and washed with ice-cold PBS prior to lysing the cell pellet with 1× lysis buffer (CST) with 1× HALT protease and phosphatase inhibitor cocktail (Thermo). Lysates were transferred to and incubated overnight at 4° C. with shaking in QuickPlex 96-well high bind assay plates (MSD) pre-coated overnight with 30 μL per well of 0.6 μg/mL mouse monoclonal anti-STAT3 antibody (STAT3) or 2 μg/mL mouse monoclonal anti-STAT6 antibody (STAT6) in 1×PBS, and pre-blocked for 1 hour with 3% Blocker-A (MSD). Captured protein in the assay plates were then washed and probed with 25 μL per well of 0.25 μg/ml rabbit monoclonal anti-pY705-STAT3 antibody (STAT3) or 0.18 μg/ml rabbit monoclonal Anti-pY641-STAT6 antibody (STAT6) in 1% Blocker-A for 1 hour at room temperature with shaking, then washed and probed with 25 ul per well of 1 ug/mi Sulfo-TAG Labeled Goat Anti-Rabbit Antibody (MSD) in 1% Blocker-A for 1 hour at room temperature with shaking. Assay plates were then washed and 150 μL of 1× Read Buffer-T (MSD) was added to each well prior to reading on an SQ120 MSD Plate Reader. Assay signal from each sample was subtracted by the signal from unstimulated control wells and normalized to DMSO control wells. IC50 values were calculated using Graph Pad Prism Dose-Response Nonlinear Regression with variable slope. For both pSTAT3 and pSTAT6 A=≤100 nM; B=>100-1000 nM; C=>1000-3000 nM; and D=>3 μM.

[2] = target: T2, Recombinant STAT6 protein (STAT6(W123-T658)) (Homo sapiens, UniProt P42226); experiment: STAT6 Fluorescence Polarization (FP) Assay; format: binding; conditions: STAT6(W123-T658) 250 nM, probe 5-FAM-ApYKPFQDLI-NH2 2 nM, 45-minute incubation
T2 construct: STAT6(W123-T658)
T2 sequence (P42226 123-658): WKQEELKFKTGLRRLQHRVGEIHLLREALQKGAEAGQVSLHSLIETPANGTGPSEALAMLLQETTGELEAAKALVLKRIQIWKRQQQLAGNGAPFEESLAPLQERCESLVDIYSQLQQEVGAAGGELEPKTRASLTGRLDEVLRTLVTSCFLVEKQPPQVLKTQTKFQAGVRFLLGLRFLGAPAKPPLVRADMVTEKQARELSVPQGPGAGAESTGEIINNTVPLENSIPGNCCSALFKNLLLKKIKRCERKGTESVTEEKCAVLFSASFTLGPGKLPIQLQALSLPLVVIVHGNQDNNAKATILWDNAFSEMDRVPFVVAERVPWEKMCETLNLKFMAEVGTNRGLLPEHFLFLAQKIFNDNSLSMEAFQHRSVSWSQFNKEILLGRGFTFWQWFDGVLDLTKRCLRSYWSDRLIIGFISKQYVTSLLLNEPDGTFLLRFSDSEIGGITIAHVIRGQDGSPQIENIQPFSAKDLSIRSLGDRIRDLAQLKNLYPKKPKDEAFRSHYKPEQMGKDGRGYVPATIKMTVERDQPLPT
Method in brief: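 Competitive displacement of a fluorescent phosphotyrosine peptide (2 nM) from recombinant STAT6 W123-T658 (250 nM), 45 min at room temperature in 10 mM HEPES pH 7.4, 50 mM NaCl, 2 mM DTT. mP fitted against log compound for IC50, grouped A (≤300 nM) to D (>30 μM).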

[3] = target: T3, Recombinant STAT3 protein (STAT3(G127-I722)) (Homo sapiens, UniProt P40763); experiment: STAT3 Fluorescence Polarization (FP) Assay; format: binding; conditions: STAT3(G127-I722) 25 nM, probe 5-FAM-GpYLPQTV-NH2 2 nM, 45-minute incubation
T3 construct: STAT3(G127-I722)
Method in brief: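 Serially diluted compounds (1% DMSO) were mixed with 2 nM fluorescent phosphotyrosine peptide and 25 nM STAT3 construct G127-I722, pH 7.4, incubated 45 min at room temperature. IC50 values from fitted polarization curves are reported as categories A (≤100 nM), B, C, D (>10 μM).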

[4] = PBMC, compound 3 hrs, then 10 ng/mL IL-6 for 10 min, MSD pY705-STAT3, read-out: pSTAT3

T3 sequence (P40763 127-722, species assumed): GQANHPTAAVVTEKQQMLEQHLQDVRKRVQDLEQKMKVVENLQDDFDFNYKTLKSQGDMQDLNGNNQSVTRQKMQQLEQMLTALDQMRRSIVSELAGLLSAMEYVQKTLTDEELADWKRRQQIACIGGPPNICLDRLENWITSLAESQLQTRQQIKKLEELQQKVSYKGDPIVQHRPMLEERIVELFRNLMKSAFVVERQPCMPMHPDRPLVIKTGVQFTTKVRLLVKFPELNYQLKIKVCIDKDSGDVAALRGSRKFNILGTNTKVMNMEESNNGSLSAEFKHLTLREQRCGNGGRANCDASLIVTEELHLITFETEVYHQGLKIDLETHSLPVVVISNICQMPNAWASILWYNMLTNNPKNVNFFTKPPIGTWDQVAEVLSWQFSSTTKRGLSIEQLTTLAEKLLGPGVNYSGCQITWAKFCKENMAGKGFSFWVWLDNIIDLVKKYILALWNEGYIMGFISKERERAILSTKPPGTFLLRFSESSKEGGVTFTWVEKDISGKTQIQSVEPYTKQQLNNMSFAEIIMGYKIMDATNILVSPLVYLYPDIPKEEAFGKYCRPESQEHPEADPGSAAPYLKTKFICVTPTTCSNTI
T1 sequence (P40763 whole entry): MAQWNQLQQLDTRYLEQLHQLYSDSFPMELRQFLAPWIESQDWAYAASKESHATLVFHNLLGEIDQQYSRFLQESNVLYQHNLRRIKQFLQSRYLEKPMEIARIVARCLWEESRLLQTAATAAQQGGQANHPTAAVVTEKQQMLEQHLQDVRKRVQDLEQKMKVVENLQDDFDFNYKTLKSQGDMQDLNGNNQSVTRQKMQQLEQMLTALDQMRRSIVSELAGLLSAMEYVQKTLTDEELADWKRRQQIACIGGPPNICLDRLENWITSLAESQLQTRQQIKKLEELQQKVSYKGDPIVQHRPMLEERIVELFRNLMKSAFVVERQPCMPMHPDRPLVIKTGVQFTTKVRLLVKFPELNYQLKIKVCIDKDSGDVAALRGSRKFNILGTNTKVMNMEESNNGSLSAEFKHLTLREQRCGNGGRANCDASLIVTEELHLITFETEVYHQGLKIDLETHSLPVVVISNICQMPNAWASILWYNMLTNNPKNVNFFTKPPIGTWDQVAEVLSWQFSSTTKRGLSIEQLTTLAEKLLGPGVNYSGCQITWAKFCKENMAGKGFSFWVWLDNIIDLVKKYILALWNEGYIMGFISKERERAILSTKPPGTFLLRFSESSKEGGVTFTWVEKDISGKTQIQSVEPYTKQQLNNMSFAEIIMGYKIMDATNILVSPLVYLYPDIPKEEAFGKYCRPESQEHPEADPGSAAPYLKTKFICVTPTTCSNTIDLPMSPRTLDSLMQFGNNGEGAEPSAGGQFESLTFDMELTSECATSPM

| Compound | IC50 [1] | IC50 [1, 4] | IC50 [2] | IC50 [3] |
| --- | --- | --- | --- | --- |
| CCCOC(=O)[C@H](C)NP(=O)(Oc1ccccc1)C(F)c1ccc2sc(C(=O)N[C@H]3C[C@@H]4C[C@@H]4C[C@H]4CC[C@@H](C(=O)N5CC(c6cnccc6N6CCC6)C5)N4C3=O)cc2c1 (single isomer, unassigned) [Compound 426] | < 100 nM | – | – | – |
| CCCOC(=O)[C@H](C)N[P@](=O)(Oc1ccccc1)[C@@H](F)c1ccc2sc(C(=O)N[C@H]3C[C@@H]4C[C@@H]4C[C@H]4CC[C@@H](C(=O)N5C[C@H](c6cccnc6)[C@@H](C#N)C56CC6)N4C3=O)cc2c1 (single isomer, unassigned) [Compound 430] | – | > 3000 nM | – | – |
| CCCOC(=O)[C@H](C)N[P@@](=O)(Oc1ccccc1)[C@@H](F)c1ccc2sc(C(=O)N[C@H]3C[C@@H]4C[C@@H]4C[C@H]4CC[C@@H](C(=O)N5C[C@H](c6cccnc6)[C@@H](C#N)C56CC6)N4C3=O)cc2c1 (single isomer, unassigned) [Compound 431] | > 3000 nM | – | – | – |
| CCCOC(=O)[C@H](C)N[P@@](=O)(Oc1ccccc1)[C@@H](F)c1ccc2sc(C(=O)N[C@H]3C[C@@H]4C[C@@H]4C[C@H]4CC[C@@H](C(=O)N5C[C@@H](c6cnccc6N(C)C)CC56CC6)N4C3=O)cc2c1 (single isomer, unassigned) [Compound 432] | – | < 100 nM | – | – |
| CCCOC(=O)[C@H](C)N[P@@](=O)(Oc1ccccc1)[C@@H](F)c1ccc2sc(C(=O)N[C@H]3C[C@@H]4C[C@@H]4C[C@H]4CC[C@@H](C(=O)N5C[C@H](c6cnccc6N(C)C)CC56CC6)N4C3=O)cc2c1 (single isomer, unassigned) [Compound 434] | < 100 nM | – | – | – |
| CC(C)OC(=O)[C@H](C)N[P@@](=O)(Cc1ccc2sc(C(=O)N[C@H]3C[C@@H]4C[C@@H]4C[C@H]4CC[C@@H](C(=O)N5CC(C(=O)N6CCOCC6)C5)N4C3=O)cc2c1)Oc1ccccc1 (single isomer, unassigned) [Example 5] | – | 1000 to 3000 nM | – | – |
| CC(C)OC(=O)[C@H](C)N[P@](=O)(Cc1ccc2sc(C(=O)N[C@H]3C[C@@H]4C[C@@H]4C[C@H]4CC[C@@H](C(=O)N5CC(C(=O)N6CCOCC6)C5)N4C3=O)cc2c1)Oc1ccccc1 (single isomer, unassigned) [Example 6] | – | 1000 to 3000 nM | – | – |
| CCCOC(=O)[C@@H](C)NP(=O)(Cc1ccc2sc(C(=O)N[C@H]3C[C@@H]4C[C@]4(C)C[C@H]4CC[C@@H](C(=O)N5CC(c6cccnc6)C5)N4C3=O)cc2c1)Oc1ccccc1 (stereo in doubt) [Compound 240, propyl(((2-(((3S,6S,7aR,8aS,9aR)-8a-methyl-5-oxo-3-(3-(pyridin-3-yl)azetidine-1-carbonyl)decahydro-1H-cyclopropa[d]pyrrolo[1,2-a]azocin-6-yl)carbamoyl)benzo[b]thiophen-5-yl)methyl)(phenoxy)phosphoryl)-L-alaninate] | < 100 nM | – | – | – |
| CCCOC(=O)[C@@H](C)NP(=O)(Cc1ccc2sc(C(=O)N[C@H]3C[C@H]4C[C@H]4C[C@H]4CC[C@@H](C(=O)N5CC(c6cnccc6C)C5)N4C3=O)cc2c1)Oc1ccccc1 (stereo in doubt) [Compound 242, propyl(((2-(((3S,6S,7aR,8aS,9aR)-3-(3-(4-methylpyridin-3-yl)azetidine-1-carbonyl)-5-oxodecahydro-1H-cyclopropa[d]pyrrolo[1,2-a]azocin-6-yl)carbamoyl)benzo[b]thiophen-5-yl)methyl)(phenoxy)phosphoryl)-L-alaninate] | < 100 nM | – | – | – |
| Cn1ccc2cncc(C3CN(C(=O)[C@@H]4CC[C@@H]5C[C@H]6C[C@H]6C[C@H](NC(=O)c6cc7cc([C@@H](F)P(=O)(O)O)ccc7s6)C(=O)N54)C3)c21 [Example 427, ((S)-fluoro(2-(((3S,6S,7aS,8aR,9aR)-3-(3-(1-methyl-1H-pyrrolo[3,2-c]pyridin-7-yl)azetidine-1-carbonyl)-5-oxodecahydro-1H-cyclopropa[d]pyrrolo[1,2-a]azocin-6-yl)carbamoyl)benzo[b]thiophen-5-yl)methyl)phosphonic acid] | – | – | 300 to 3000 nM | 100 to 1000 nM |
| N#CC1CN(c2ccncc2C2CN(C(=O)[C@@H]3CC[C@@H]4C[C@H]5C[C@H]5C[C@H](NC(=O)c5cc6cc([C@@H](F)P(=O)(O)O)ccc6s5)C(=O)N43)C2)C1 [Example 428, ((S)-(2-(((3S,6S,7aS,8aR,9aR)-3-(3-(4-(3-cyanoazetidin-1-yl)pyridin-3-yl)azetidine-1-carbonyl)-5-oxodecahydro-1H-cyclopropa[d]pyrrolo[1,2-a]azocin-6-yl)carbamoyl)benzo[b]thiophen-5-yl)fluoromethyl)phosphonic acid] | – | – | 3000 to 30000 nM | < 100 nM |
| ((R)-fluoro(2-(((3S,6S,7aS,8aR,9aR)-3-(3-(morpholine-4-carbonyl)azetidine-1-carbonyl)-5-oxodecahydro-1H-cyclopropa[d]pyrrolo[1,2-a]azocin-6-yl)carbamoyl)benzo[b]thiophen-5-yl)methyl)phosphonic acid or ((S)-fluoro(2-(((3S,6S,7aS,8aR,9aR)-3-(3-(morpholine-4-carbonyl)azetidine-1-carbonyl)-5-oxodecahydro-1H-cyclopropa[d]pyrrolo[1,2-a]azocin-6-yl)carbamoyl)benzo[b]thiophen-5-yl)methyl)phosphonic acid [Compound 33] | – | – | 3000 to 30000 nM | < 100 nM |
| ((S)-fluoro(2-(((3S,6S,7aS,8aR,9aR)-3-(3-(morpholine-4-carbonyl)azetidine-1-carbonyl)-5-oxodecahydro-1H-cyclopropa[d]pyrrolo[1,2-a]azocin-6-yl)carbamoyl)benzo[b]thiophen-5-yl)methyl)phosphonic acid Or ((R)-fluoro(2-(((3S,6S,7aS,8aR,9aR)-3-(3-(morpholine-4-carbonyl)azetidine-1-carbonyl)-5-oxodecahydro-1H-cyclopropa[d]pyrrolo[1,2-a]azocin-6-yl)carbamoyl)benzo[b]thiophen-5-yl)methyl)phosphonic acid [Compound 34] | – | – | > 30000 nM | 100 to 1000 nM |
| (difluoro(2-(((3S,6S,7aR,8aS,9aR)-5-ox0-3-(3-(pyridin-2-yl)azetidine-1-carbonyl)decahydro-1H-cyclopropa[d]pyrrolo[1,2-a]azocin-6-yl)carbamoyl)benzo[b]thiophen-5-yl)methyl)phosphonic acid [Compound 106] | – | – | 300 to 3000 nM | < 100 nM |
| (difluoro(2-(((3S,6S,8aR,9aS,9bR)-3-(3-methoxy-3-(1-methyl-1H-imidazol-2-yl)azetidine-1-carbonyl)-8a-methyl-5-oxodecahydro-1H-cyclopropa[c]pyrrolo[1,2-a]azocin-6-yl)carbamoyl)benzo[b]thiophen-5-yl)methyl)phosphonic acid [Example 241] | – | – | 3000 to 30000 nM | 100 to 1000 nM |
